Test results: patent US12030875B2, “EIF4E inhibitors and uses thereof” (PIC Therapeutics, Inc., priority 2018, dated 2024)

Target: T1, Human eIF4E (Homo sapiens, UniProt P06730)
T1 construct: Human eIF4E (aa 28-217) with a C-terminal His-tag; made in house
Experiment: Human eIF4E/4G2 binding assay (TR-FRET)
Settings: eIF4E (aa 28-217) with biotin labeled 4G2 peptide
Procedure: Human eIF4E (aa 28-217) with a C-terminal His-tag was expressed in E. coli in inclusion bodies. The protein was solubilized with 8 M urea and purified under denaturing conditions using nickel-charged HisTrap HP columns (GE Healthcare). The purified protein was then refolded by diluting in 20 mM Hepes pH 7.0, 0.5 M NaCl, 1 mM DTT, 1 mM EDTA, 0.5 M arginine plus 6 M urea, and then dialyzing overnight into the same buffer without the urea. The protein was further dialyzed into 20 mM Hepes, pH 6.5, 50 mM NaCl, 1 mM EDTA, 1 mM DTT, and concentrated using Hitrap SP sepharose FF columns (GE Healthcare). The concentrated protein was dialyzed into 20 mM Hepes, pH 7.0, 0.5M NaCl, 5 mM DTT and 10% glycerol, and stored at −80° C. until use.
Test compounds (3.43 mM stock in DMSO) were diluted 2-fold in series in DMSO (10 concentration points). Compound solutions (1.2 μl/well) were added into black 384-well polypropylene microplates (Matrix, Thermal Scientific). Twenty-two microliters per well of Assay Buffer (50 mM NaPi, pH 6.5, 50 mM KCl, 1 mM DTT and 0.5 mg/ml gamma globulin) and eight microliters per well of 82.5 nM purified eIF4E in Assay Buffer were added. The samples were incubated at room temperature (20-23° C.) for 15 min. Biotin labeled 4G2 peptide (Ac-Lys-Gln-Tyr-Asp-Arg-Glu-Phe-Leu-Leu-Asp-Phe-Gln-Phe-Met-Pro-Lys(Aha-Bio)-NH2, 1.75 μM stock in DMSO) was diluted to 0.14 μM in Assay Buffer (without DTT) and 5 μl/well was added. The samples were incubated at room temperature for 15 min. Five microliters per well of 6.4 nM Eu-streptavidin (Eu-SA, Perkin Elmer) and 80 nM Allophycocyanin (APC)-anti His antibody (Columbia Biosciences) in Assay Buffer (without DTT) were then added and the samples were incubated at room temperature for 20 min.
Assay signals were monitored by reading excitation at 340 nm and emission fluorescence at 615 nm and 665 nm on an Envision reader (Perkin Elmer). Normalized TR-FRET (time-resolved fluorescence resonance energy transfer) assay signal (Rn) was calculated by the formula: Rn═[(A−Ba−C×D)/(D−Bd)]×(Dc−Bd) • Where A is the fluorescence intensity of the sample at 665 nm, • D is the fluorescence intensity of the sample at 615 nm, • Ba and Bd are plate backgrounds at 665 nm and 615 nm, respectively, • Dc is the fluorescence intensity of 0.78 nM Eu-SA in the assay buffer at 615 nm • The cross-talk factor (C) is determined by the following formula: C=(Ac−Ba)/(Dc−Bd) • Where Ac is the fluorescence intensity of 0.78 nM Eu-SA in the assay buffer at 665 nm.
IC50 values were calculated using xLFit program (IDBS).

T1 sequence (P06730 28-217): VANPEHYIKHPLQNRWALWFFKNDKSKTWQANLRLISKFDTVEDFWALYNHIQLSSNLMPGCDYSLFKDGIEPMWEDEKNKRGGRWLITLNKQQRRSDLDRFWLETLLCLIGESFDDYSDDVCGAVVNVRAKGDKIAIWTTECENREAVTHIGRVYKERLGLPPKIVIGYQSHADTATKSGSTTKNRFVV

Molecule `O=C(O)C1CC(CNc2nc(-c3ccc(Oc4ccccc4)cc3)c(-c3cncnc3)s2)C1` (stereo not shown) [Compound I-202] has an IC50 greater than 25 µM.

`CC(C)C(CC(=O)O)Nc1nc(-c2cncnc2)c(-c2ccc(-c3cnco3)cc2)s1` (stereo not shown) [Compound I-2] showed an IC50 greater than 25 µM.

`CC(C)C(CC(=O)O)Nc1nc(-c2cccnc2)c(-c2ccc(-c3cnco3)cc2)s1` (stereo not shown) [Compound I-3] was tested, and the IC50 was greater than 25 µM.

In the case of `CC1(C(=O)O)CCCN(c2nc(-c3ccc(-c4ccc(F)cc4)cc3)c(-c3cccnc3)s2)C1` (stereo not shown) [Compound I-146], the IC50 is reported as 5 to 25 µM.

`CC1(C(=O)O)CN(c2nc(-c3ccc(Oc4ccccc4)cc3)c(-c3cccnc3)s2)C1` [Compound I-165] showed an IC50 greater than 25 µM.

`O=C(O)C1CCN(c2nc(-c3ccc(-c4ccc(F)cc4)cc3)c(-c3ccccc3)s2)CC1` [Compound I-136] showed an IC50 of less than 5 µM.

In the case of `O=C(O)C1CCCN(c2nc(-c3ccc(Oc4ccccc4)cc3)c(-c3cccnc3)s2)C1` (stereo not shown) [Compound I-184], the IC50 is reported as greater than 25 µM.

For `CC(C)(CC(=O)O)Nc1nc(-c2ccc(Oc3ccccc3)cc2)c(-c2cncnc2)s1` [Compound I-150], the IC50 was greater than 25 µM.

Molecule `CC(CC(=O)O)Nc1nc(-c2ccc(Oc3ccccc3)cc2)c(-c2cccc3[nH]ccc23)s1` (stereo not shown) [Compound I-175] has an IC50 greater than 25 µM.

`O=C(O)C1CCCN(c2nc(-c3ccc(Oc4ccccc4)cc3)cs2)C1` (stereo not shown) [Compound I-181] gave an IC50 greater than 25 µM.

`O=C(O)C1CN(c2nc(-c3ccc(-c4ccc(F)cc4)cc3)c(-c3ccccc3)s2)C1` [Compound I-77] showed an IC50 of 5 to 25 µM.

With `CCCC(CNc1nc(-c2ccc(-c3ccc(F)cc3)cc2)c(-c2ccccc2)s1)C(=O)O` (stereo not shown) [Compound I-89] the IC50 was less than 5 µM.

In the case of `Cc1sc(NCC(C)C(=O)O)nc1-c1ccc(-c2ccc(F)cc2)cc1` (stereo not shown) [Compound I-230], the IC50 is reported as 5 to 25 µM.

In the case of `O=C(O)CC1CCCN1c1nc(-c2ccc(-c3ccc(F)cc3)cc2)c(-c2ccccc2)s1` (stereo not shown) [Compound I-111], the IC50 is reported as less than 5 µM.

For `CC(CNc1nc(-c2ccc(-c3ccc(F)cc3)cc2)c(C(F)(F)F)s1)C(=O)O` (stereo not shown) [Compound I-229], the IC50 was less than 5 µM.

`O=C(O)C1CN(c2nc(-c3ccc(Oc4ccccc4)cc3)c(-c3cncnc3)s2)C1` [Compound I-159] was tested, and the IC50 was greater than 25 µM.

With `O=C(O)C1CN(c2nc(-c3ccc(-c4ccc(F)cc4)cc3)c(-c3cncnc3)s2)C1` [Compound I-78] the IC50 was greater than 25 µM.

Molecule `CC(CC(=O)O)Nc1nc(-c2ccc(-c3ccc(F)cc3)cc2)c(-c2cncnc2)s1` (stereo not shown) [Compound I-96] has an IC50 greater than 25 µM.

Molecule `O=C(O)C1(CNc2nc(-c3ccc(-c4cnco4)cc3)c(-c3cncnc3)s2)CC1` [Compound I-45] has an IC50 greater than 25 µM.

`O=C(O)CCc1nc(-c2ccc(-c3ccc(F)cc3)cc2)c(-c2ccccc2)s1` [Compound I-234, 3-(4-(4′-fluorobiphenyl-4-yl)-5-phenylthiazol-2-yl)propanoic acid] showed an IC50 of less than 5 µM.

`CC(C)(CNc1nc(-c2ccc(-c3ccc(F)cc3)cc2)c(-c2cncnc2)s1)C(=O)O` [Compound I-73] was tested, and the IC50 was greater than 25 µM.

Work on `CCCC(CNc1nc(-c2ccc(-c3ccc(F)cc3)cc2)c(-c2cncnc2)s1)C(=O)O` (stereo not shown) [Compound I-90] yielded an IC50 greater than 25 µM.

Molecule `O=C(O)C1CN(c2nc(-c3ccc(Oc4ccccc4)cc3)c(-c3cccnc3)s2)C1` [Compound I-160] has an IC50 greater than 25 µM.

Molecule `O=C(O)[C@H]1CCCN(c2nc(-c3ccc(Oc4ccccc4)cc3)c(-c3ccccc3)s2)C1` [Compound I-228] has an IC50 of less than 5 µM.

In the case of `CC(CNc1nc(-c2ccc(-c3cnco3)cc2)c(-c2ccccc2)s1)C(=O)O` (stereo not shown) [Compound I-27], the IC50 is reported as greater than 25 µM.

`CC(C)(CNc1nc(-c2ccc(Oc3ccccc3)cc2)c(-c2cccnc2)s1)C(=O)O` [Compound I-156] gave an IC50 greater than 25 µM.

`CC(C)C(CC(=O)O)Nc1nc(-c2ccc(-c3ccc(F)cc3)cc2)c(-c2cncnc2)s1` (stereo not shown) [Compound I-67] showed an IC50 greater than 25 µM.

`O=C(O)C1CN(c2nc(-c3ccc(-c4cnco4)cc3)c(-c3cncnc3)s2)C1` [Compound I-10] gave an IC50 greater than 25 µM.

With `CCCC(CNc1nc(-c2cccnc2)c(-c2ccc(-c3cnco3)cc2)s1)C(=O)O` (stereo not shown) [Compound I-20] the IC50 was greater than 25 µM.

Work on `CC(C)(CNc1nc(-c2ccc(-c3ccc(F)cc3)cc2)cs1)C(=O)O` [Compound I-70] yielded an IC50 greater than 25 µM.

For `CC(C)C(CC(=O)O)Nc1nc(-c2ccc(Oc3ccccc3)cc2)c(-c2cccc3[nH]ccc23)s1` (stereo not shown) [Compound I-152], the IC50 was 5 to 25 µM.

For `O=C(O)C1CCN(c2nc(-c3ccc(-c4ccc(F)cc4)cc3)c(-c3cccnc3)s2)CC1` [Compound I-138], the IC50 was 5 to 25 µM.

Work on `CCCC(CNc1nc(-c2ccc(-c3cnco3)cc2)cs1)C(=O)O` (stereo not shown) [Compound I-17] yielded an IC50 greater than 25 µM.

In the case of `O=C(O)C1CN(c2nc(-c3ccc(Oc4ccccc4)cc3)c(-c3ccccc3)s2)CCO1` (stereo not shown) [Compound I-213], the IC50 is reported as less than 5 µM.

With `CC1(C(=O)O)CCCN(c2nc(-c3ccc(-c4cnco4)cc3)c(-c3cccnc3)s2)C1` (stereo not shown) [Compound I-62] the IC50 was greater than 25 µM.

Work on `CC(C)(CNc1nc(-c2ccc(-c3ccc(F)cc3)cc2)c(Br)s1)C(=O)O` [Compound I-71] yielded an IC50 of 5 to 25 µM.

`CCCC(CNc1nc(-c2ccc(-c3ccc(F)cc3)cc2)cs1)C(=O)O` (stereo not shown) [Compound I-87] gave an IC50 greater than 25 µM.

`CC(CNc1nc(-c2ccc(Oc3ccccc3)cc2)c(-c2cncnc2)s1)C(=O)O` (stereo not shown) [Compound I-178] was tested, and the IC50 was greater than 25 µM.

`O=C(O)C1CCN(c2nc(-c3ccc(-c4cnco4)cc3)c(-c3cccnc3)s2)CC1` [Compound I-54] gave an IC50 greater than 25 µM.

`CC(C)C(CC(=O)O)Nc1nc(-c2ccccc2)c(-c2ccc(-c3cnco3)cc2)s1` (stereo not shown) [Compound I-1] was tested, and the IC50 was greater than 25 µM.

For `O=C(O)C1CC(CNc2nc(-c3ccc(Oc4ccccc4)cc3)c(-c3cccnc3)s2)C1` (stereo not shown) [Compound I-203], the IC50 was greater than 25 µM.

Work on `CC1(C(=O)O)CN(c2nc(-c3ccc(-c4cnco4)cc3)c(-c3cccnc3)s2)C1` [Compound I-15] yielded an IC50 greater than 25 µM.

Work on `CC(CNc1nc(-c2ccc(Oc3ccccc3)cc2)c(-c2cccc3[nH]ccc23)s1)C(=O)O` (stereo not shown) [Compound I-180] yielded an IC50 greater than 25 µM.

Molecule `CC(CC(=O)O)Nc1nc(-c2ccc(-c3cnco3)cc2)c(-c2cncnc2)s1` (stereo not shown) [Compound I-23] has an IC50 greater than 25 µM.

Work on `O=C(O)C1CN(c2nc(-c3ccc(Oc4ccccc4)cc3)c(-c3cccc4[nH]ccc34)s2)C1` [Compound I-161] yielded an IC50 of 5 to 25 µM.

`CC(CNc1nc(-c2ccc(-c3cnco3)cc2)c(-c2cccc3[nH]ccc23)s1)C(=O)O` (stereo not shown) [Compound I-30] gave an IC50 greater than 25 µM.

For `CC(CC(=O)O)Nc1nc(-c2ccc(-c3ccc(F)cc3)cc2)c(-c2cccc3[nH]ccc23)s1` (stereo not shown) [Compound I-98], the IC50 was 5 to 25 µM.

Molecule `CC1(C(=O)O)CCCN(c2nc(-c3ccc(-c4ccc(F)cc4)cc3)c(-c3ccccc3)s2)C1` (stereo not shown) [Compound I-144] has an IC50 of less than 5 µM.

In the case of `O=C(O)C1(CNc2nc(-c3ccc(-c4ccc(F)cc4)cc3)c(-c3cccc4[nH]ccc34)s2)CC1` [Compound I-125], the IC50 is reported as less than 5 µM.

`CC1(C(=O)O)CN(c2nc(-c3ccc(-c4ccc(F)cc4)cc3)c(Br)s2)C1` [Compound I-82] gave an IC50 of 5 to 25 µM.

In the case of `CC(C)C(CC(=O)O)Nc1nc(-c2ccc(Oc3ccccc3)cc2)c(-c2ccccc2)s1` (stereo not shown) [Compound I-149], the IC50 is reported as 5 to 25 µM.

`CC1(C(=O)O)CN(c2nc(-c3ccc(-c4ccc(F)cc4)cc3)cs2)C1` [Compound I-81] showed an IC50 greater than 25 µM.

`CC(C)C(CC(=O)O)Nc1nc(-c2ccc(Oc3ccccc3)cc2)c(-c2cccnc2)s1` (stereo not shown) [Compound I-151] was tested, and the IC50 was greater than 25 µM.

With `O=C(O)CC1CCCN1c1nc(-c2ccc(-c3ccc(F)cc3)cc2)c(-c2cccnc2)s1` (stereo not shown) [Compound I-113] the IC50 was greater than 25 µM.

`CC(C)(CNc1nc(-c2ccc(-c3cnco3)cc2)c(-c2cccnc2)s1)C(=O)O` [Compound I-7] showed an IC50 greater than 25 µM.

With `CC(C)C(CC(=O)O)Nc1nc(-c2ccc(-c3ccc(F)cc3)cc2)c(Br)s1` (stereo not shown) [Compound I-65] the IC50 was 5 to 25 µM.

In the case of `O=C(O)CC1CCCN1c1nc(-c2ccc(Oc3ccccc3)cc2)c(-c2ccccc2)s1` (stereo not shown) [Compound I-186], the IC50 is reported as less than 5 µM.

Molecule `O=C(O)[C@H]1CCCN(c2nc(-c3ccc(-c4ccc(F)cc4)cc3)c(-c3ccccc3)s2)C1` [Compound I-224] has an IC50 of less than 5 µM.

`CCCC(CNc1nc(-c2ccc(Oc3ccccc3)cc2)c(-c2cccnc2)s1)C(=O)O` (stereo not shown) [Compound I-170] was tested, and the IC50 was greater than 25 µM.

`O=C(O)C1CN(c2nc(-c3ccc(-c4ccc(F)cc4)cc3)c(-c3cccc4[nH]ccc34)s2)CCO1` (stereo not shown) [Compound I-143] gave an IC50 of less than 5 µM.

For `O=C(O)CC1CCCN1c1nc(-c2ccc(-c3cnco3)cc2)c(-c2cccnc2)s1` (stereo not shown) [Compound I-38], the IC50 was greater than 25 µM.
